In patent US20100290989A1, “COMPOSITIONS AFFECTING HYALURONIC ACID MEDIATED ACTIVITY” (LONDON HEALTH SCIENCES CENTRE RESEARCH INC., priority 2007, published 2010):
Entries after “also recorded” stand apart in the source; their conditions may differ.

Tests used:
[1] = Isothermal calorimetry (ITC) of peptide binding to low molecular weight HA
Method: The binding of soluble peptide 15-1 to HA was next evaluated by isothermal calorimetry (ITC), to estimate a binding constant for the peptide (FIG. 2, the two lines represent two independent determinations in the figure). A buffered solution of 0.9 mM low molecular weight HA (10 kD average molecular weight) was injected into to a 0.6 mM peptide 15-1 solution. […] This peptide (and the scrambled control) have been further characterized in biological systems.

[2] = system: wild-type dermal fibroblast cells; assay: Scratch wound assay, wild-type fibroblast migration; type: cell-based; details: migration stimulated by 30-mer HA
Method: (§1) Scratch wound assays with Rhamm null and wildtype fibroblast cells were used to evaluate the biological properties of peptide 15-1.
(§2) Scratch wound assays are commonly used to assess the effects of drugs and drug candidates on cellular migration associated with wound closing. In a typical scratch wound assay, cells are plated to confluence in a multiwell plate. A single scratch wound is created in each well. The plate is then imaged at fixed time intervals. Cell number in the area of the scratch wound can be quantified to evaluate the characteristics of wound closing in the presence of pharmacological agents.
(§3) The lack of HA induced migration was reversed by re-expression of Rhamm (FIG. 3a).
The scratch wound assay was also used to determine the ability of various sizes of HA oligomers to promote migration of wild-type dermal fibroblast cells (FIGS. 8a and 8b).

[3] = system: MDA-MB 231 cells; assay: Methylcellulose assay, anchorage independent growth of breast cancer cells; type: cell-based, human; details: MDA-MB 231 in methylcellulose; 30 ug/ml; one week; versus scrambled control peptide
Method: MDA-MB 231 cells were grown in Methylcellulose containing either peptide 15-1 (STMMSRSHKTRSHHV) or scrambled control peptide (HKSVSRHTSMRHSTM) (30 ug/ml). One week later, cells were counted.

[4] = system: MDA-MB-231 cells; assay: Scratch wound assay, breast cancer cell migration; type: cell-based, human; details: 30 ug/ml, 24 hrs, versus scrambled control peptide
Method: A confluent monolayer of MDA-MB-231 cells were scratched using a pipette tip. Cells were incubated in medium containing either peptide 15-1 (STMMSRSHKTRSHHV) or scrambled control peptide (HKSVSRHTSMRHSTM) (30 ug/ml). After 24 hrs, cells that migrated into the scratch were counted.

[5] = system: prostate tumor cells; assay: In vivo growth of subcutaneously injected, peptide-pretreated tumor cells; design: species or system NOD.CB17 SCID mice; details: cells pretreated with 50 micromolar peptide, tumors harvested after 28 days
Method: Studies have also been performed to determine if peptide 15-1 can inhibit tumor growth in a more complex microenvironment (FIG. 5). One hundred thousand tumor cells pretreated with 50 micromolar peptide 15-1 were injected subcutaneously into NOD.CB17 SCID mice. Twenty eight days later the mice were euthanized and the tumors harvested and analyzed.

[6] = system: Prostate tumor PC3M-LN4 cells; assay: Methylcellulose assay, anchorage-independent growth of prostate tumor cells with peptide; type: cell-based; details: 50 micromolar peptide; PC3M-LN4 in methylcellulose; 7 days
Method: A methylcellulose assay was adapted to evaluate anchorage-independent growth of prostate tumor cells in vitro. This assay offers advantages over agarose since the gels can be easily solubilized, allowing for recovery and quantification/biochemical characterization of cells at the end of the experiment. Prostate tumor PC3M-LN4 cells which synthesize large amounts of HA grow in this assay to form large multicellular colonies. Cells were recovered and counted after 7 days of incubation.
Fifteen thousand PC3M-LN4 cells were seeded into methylcellulose in the presence of 50 micromolar of the HA binding peptide 15-1 or scrambled peptide. Each peptide was mixed with PC3M-LN4 cells prior to culturing these cells in methylcellulose (FIG. 4). Culturing these cells in the presence of 50 micromolar peptide 15-1 inhibits anchorage-independent growth by 80%, which is highly statistically significant (FIG. 4).

[7] = system: Rhamm null (Rh−/−) fibroblasts; assay: Scratch wound assay, Rhamm null fibroblast migration; type: cell-based; details: with HA
Method: as §1, §2, §3

[8] = Isothermal calorimetry (ITC) of peptide binding to high molecular weight HA; details: high molecular weight HA used instead of fragmented HA
Source text: The binding of soluble peptide 15-1 to HA was next evaluated by isothermal calorimetry (ITC), to estimate a binding constant for the peptide (FIG. 2, the two lines represent two independent determinations in the figure). […] This peptide (and the scrambled control) have been further characterized in biological systems.

Sequence	interaction with HA ([1]; low molecular weight HA (10 kD average), same conditions as peptide 15-1)	inhibition of HA stimulated migration of wildtype cells [2]	anchorage independent growth of human breast cancer cells [3]	scratch wound induced migration of human breast cancer cells [4]	Kd ([1]; 0.9 mM low molecular weight HA (10 kD average) injected into 0.6 mM peptide solution, estimated, read-out: binding constant (Kd)) [µM]	tumor growth [5]	inhibition of anchorage-independent growth [6] [%]	inhibition of migration of Rhamm null cells [7]	interaction with high molecular weight HA [8]
HKSVSRHTSMRHSTM [scrambled peptide, scrambled counterpart of peptide 15-1 used as a control, reference compound]	did not interact with HA								
STMMSRSHKTRSHHV [peptide 15-1]		sensitive to the inhibitory effects; also recorded: inhibited	reduce anchorage independent growth	reduces scratch wound induced migration	0.1	decrease in tumor growth	80	resistant to the inhibitory effects	greatly reduced
